Literature values, collected in patent US10765664B2, “Treatment of infectious diseases” (CHILDREN'S MEDICAL CENTER CORPORATION, priority 2015, dated 2020).

Tested on: nonreplicating MTb
Details: extremely high inocula; cited from earlier work

SMILES: CC(=O)Oc1ccccc1C(=O)Nc1ncc([N+](=O)[O-])s1 [NTZ, [2-[(5-nitro-1,3-thiazol-2-yl)carbamoyl]phenyl] ethanoate]
- resistance mutants: no evidence of resistance mutants
